PubChem BioAssay (NCI)
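These data come from cells grown in 96-well plates and exposed to compound for 48 hours at five concentrations. GI50 = concentration required for 50% inhibition of growth. TGI: total growth inhibition.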

How the values were obtained:
Assay in all cases: NCI anticancer screen, dose series, 48 h
[1] = system: 786-0 renal
[2] = system: A498 renal
[3] = system: A549 NSCLC
[4] = system: ACHN renal
[5] = system: CAKI-1 renal
[6] = system: CCRF-CEM leukemia
[7] = system: COLO 205 colon
[8] = system: DU-145 prostate
[9] = system: EKVX NSCLC
[10] = system: HCC-2998 colon
[11] = system: HCT-116 colon
[12] = system: HCT-15 colon
[13] = system: HL-60(TB) leukemia
[14] = system: HOP-62 NSCLC
[15] = system: HS 578T breast
[16] = system: HT29 colon
[17] = system: IGROV1 ovarian
[18] = system: K-562 leukemia
[19] = system: KM12 colon
[20] = system: LOX IMVI melanoma
[21] = system: M14 melanoma
[22] = system: MALME-3M melanoma
[23] = system: MCF7 breast
[24] = system: MDA-MB-231 breast
[25] = system: MDA-MB-435
[26] = system: MOLT-4 leukemia
[27] = system: NCI-H226 lung
[28] = system: NCI-H23 lung
[29] = system: NCI-H460 lung
[30] = system: NCI-H522 lung
[31] = system: NCI/ADR-RES ovarian
[32] = system: OVCAR-3 ovarian
[33] = system: OVCAR-4 ovarian
[34] = system: OVCAR-5 ovarian
[35] = system: OVCAR-8 ovarian
[36] = system: RPMI-8226 leukemia
[37] = system: RXF 393 renal
[38] = system: SF-268 CNS
[39] = system: SF-295 CNS
[40] = system: SF-539 CNS
[41] = system: SK-MEL-2 melanoma
[42] = system: SK-MEL-28 melanoma
[43] = system: SK-MEL-5 melanoma
[44] = system: SK-OV-3 ovarian
[45] = system: SN12C renal
[46] = system: SNB-19 CNS
[47] = system: SNB-75 CNS
[48] = system: SR leukemia
[49] = system: SW-620 colon
[50] = system: TK-10 renal
[51] = system: U251 CNS
[52] = system: UACC-257 melanoma
[53] = system: UACC-62 melanoma
[54] = system: UO-31 renal

Which GI50 [1] does the source give for `COc1ccc2cc(C#Cc3ccc(-n4c(/C=C/c5cc(OC)c(OC)c(OC)c5)nc5ccccc5c4=O)c(C)c3)ccc2c1` here?
The GI50 was over 100 µM.

What about the TGI [1] of the same compound?
Its TGI is over 100 µM.

And the GI50 [2]?
Its GI50 is over 100 µM.

What about the TGI [2] of the same compound?
The TGI was over 100 µM.

And the GI50 [3]?
Its GI50 is over 100 µM.

What about the TGI [3] of the same compound?
The TGI was over 100 µM.

What about the GI50 [4] of the same compound?
Its GI50 is over 100 µM.

And the TGI [4]?
Its TGI is over 100 µM.

What about the GI50 [5] of the same compound?
Its GI50 is 4.91 µM.

And the TGI [5]?
Its TGI is over 100 µM.

What about the GI50 [6] of the same compound?
Its GI50 is over 100 µM.

And the TGI [6]?
Its TGI is over 100 µM.

What about the GI50 [7] of the same compound?
The GI50 was 6.96 µM.

What about the TGI [7] of the same compound?
The TGI was over 100 µM.

What about the GI50 [8] of the same compound?
Its GI50 is over 100 µM.

And the TGI [8]?
The TGI was over 100 µM.

What about the GI50 [9] of the same compound?
The GI50 was 24.1 µM.

And the TGI [9]?
Its TGI is over 100 µM.

And the GI50 [10]?
The GI50 was over 100 µM.

And the TGI [10]?
The TGI was over 100 µM.

What about the GI50 [11] of the same compound?
The GI50 was 3.53 µM.

What about the TGI [11] of the same compound?
The TGI was over 100 µM.

And the GI50 [12]?
The GI50 was 1.22 µM.

What about the TGI [12] of the same compound?
The TGI was over 100 µM.

And the GI50 [13]?
Its GI50 is 0.686 µM.

What about the TGI [13] of the same compound?
Its TGI is over 100 µM.

And the GI50 [14]?
Its GI50 is over 100 µM.

And the TGI [14]?
The TGI was over 100 µM.

What about the GI50 [15] of the same compound?
The GI50 was over 100 µM.

And the TGI [15]?
The TGI was over 100 µM.

And the GI50 [16]?
The GI50 was 3.41 µM.

What about the TGI [16] of the same compound?
The TGI was over 100 µM.

And the GI50 [17]?
The GI50 was over 100 µM.

And the TGI [17]?
The TGI was over 100 µM.

And the GI50 [18]?
The GI50 was 0.882 µM.

What about the TGI [18] of the same compound?
Its TGI is over 100 µM.

What about the GI50 [19] of the same compound?
Its GI50 is 4.3 µM.

What about the TGI [19] of the same compound?
The TGI was over 100 µM.

What about the GI50 [20] of the same compound?
Its GI50 is 5.94 µM.

What about the TGI [20] of the same compound?
Its TGI is over 100 µM.

And the GI50 [21]?
Its GI50 is 12.7 µM.

And the TGI [21]?
Its TGI is over 100 µM.

What about the GI50 [22] of the same compound?
Its GI50 is 42.6 µM.

What about the TGI [22] of the same compound?
The TGI was over 100 µM.

And the GI50 [23]?
The GI50 was 63.8 µM.

And the TGI [23]?
The TGI was over 100 µM.

What about the GI50 [24] of the same compound?
Its GI50 is 37 µM.

What about the TGI [24] of the same compound?
Its TGI is over 100 µM.

And the GI50 [25]?
The GI50 was over 100 µM.

And the TGI [25]?
The TGI was over 100 µM.

What about the GI50 [26] of the same compound?
Its GI50 is 4.66 µM.

What about the TGI [26] of the same compound?
The TGI was over 100 µM.

And the GI50 [27]?
The GI50 was over 100 µM.

And the TGI [27]?
Its TGI is over 100 µM.

What about the GI50 [28] of the same compound?
Its GI50 is 40.5 µM.

What about the TGI [28] of the same compound?
The TGI was over 100 µM.

And the GI50 [29]?
Its GI50 is 2.48 µM.

What about the TGI [29] of the same compound?
Its TGI is over 100 µM.

What about the GI50 [30] of the same compound?
Its GI50 is over 100 µM.

And the TGI [30]?
Its TGI is over 100 µM.

What about the GI50 [31] of the same compound?
Its GI50 is over 100 µM.

And the TGI [31]?
Its TGI is over 100 µM.

And the GI50 [32]?
The GI50 was 19.3 µM.

What about the TGI [32] of the same compound?
The TGI was over 100 µM.

And the GI50 [33]?
Its GI50 is over 100 µM.

And the TGI [33]?
The TGI was over 100 µM.

What about the GI50 [34] of the same compound?
The GI50 was over 100 µM.

And the TGI [34]?
The TGI was over 100 µM.

What about the GI50 [35] of the same compound?
Its GI50 is over 100 µM.

What about the TGI [35] of the same compound?
The TGI was over 100 µM.

What about the GI50 [36] of the same compound?
The GI50 was 0.821 µM.

What about the TGI [36] of the same compound?
The TGI was over 100 µM.

What about the GI50 [37] of the same compound?
Its GI50 is over 100 µM.

What about the TGI [37] of the same compound?
The TGI was over 100 µM.

What about the GI50 [38] of the same compound?
The GI50 was over 100 µM.

What about the TGI [38] of the same compound?
Its TGI is over 100 µM.

And the GI50 [39]?
Its GI50 is over 100 µM.

What about the TGI [39] of the same compound?
The TGI was over 100 µM.

What about the GI50 [40] of the same compound?
Its GI50 is over 100 µM.

What about the TGI [40] of the same compound?
Its TGI is over 100 µM.

What about the GI50 [41] of the same compound?
The GI50 was over 100 µM.

What about the TGI [41] of the same compound?
Its TGI is over 100 µM.

And the GI50 [42]?
The GI50 was over 100 µM.

And the TGI [42]?
Its TGI is over 100 µM.

And the GI50 [43]?
The GI50 was 1.85 µM.

What about the TGI [43] of the same compound?
The TGI was over 100 µM.

What about the GI50 [44] of the same compound?
The GI50 was over 100 µM.

What about the TGI [44] of the same compound?
Its TGI is over 100 µM.

And the GI50 [45]?
Its GI50 is over 100 µM.

What about the TGI [45] of the same compound?
The TGI was over 100 µM.

And the GI50 [46]?
Its GI50 is over 100 µM.

And the TGI [46]?
Its TGI is over 100 µM.

And the GI50 [47]?
Its GI50 is over 100 µM.

And the TGI [47]?
Its TGI is over 100 µM.

What about the GI50 [48] of the same compound?
The GI50 was 0.395 µM.

And the TGI [48]?
The TGI was over 100 µM.

And the GI50 [49]?
Its GI50 is 17.2 µM.

And the TGI [49]?
Its TGI is over 100 µM.

What about the GI50 [50] of the same compound?
The GI50 was over 100 µM.

And the TGI [50]?
Its TGI is over 100 µM.

What about the GI50 [51] of the same compound?
The GI50 was 7.4 µM.

What about the TGI [51] of the same compound?
Its TGI is over 100 µM.

What about the GI50 [52] of the same compound?
Its GI50 is 6.24 µM.

And the TGI [52]?
The TGI was over 100 µM.

What about the GI50 [53] of the same compound?
Its GI50 is 2.19 µM.

And the TGI [53]?
The TGI was over 100 µM.

And the GI50 [54]?
The GI50 was over 100 µM.

And the TGI [54]?
Its TGI is over 100 µM.
